Reference: patent US12533429B2, “Surface enhanced raman scattering nanoparticles and their use in detecting and imaging oxidative stress” (The Board of Trustees of the Leland Stanford Junior …, priority 2019, dated 2026)
Values joined by “and” are separate entries in the source; they are usually repeats but may differ in a detail not shown here. Identical values can stand only once.

Tests used:
AsPC-1 cells = test: DCFH-DA fluorometric ROS assay in AsPC-1 cells; type: cell-based, human; conditions: DCFH-DA 40 μM, 24 h
Procedure: (§1) To measure ROS, a traditional fluorometric assay using Dichlorofluorescein diacetate (DCFH-DA; Sigma Aldrich, USA) was performed. DCFH-DA is a cell-permeable non-fluorescent probe which is hydrolyzed by intracellular esterases, thereby trapping it within the cell. This non-fluorescent molecule can then be oxidized by ROS, which turns it into fluorescent dichlorofluorescein (DCF). The level of intracellular fluorescence is therefore proportional to the amount of intracellular ROS production with a linear dynamic range [12]. All experiments were performed in 12-well plates. A431 and AsPC-1 cells were seeded in 12-well culture plates achieving a cell density of 50,000, 100,000, 200,000 and 300,000 cells/well. Cells were incubated with DCFH-DA (40 μM, 200 μL) in DMEM-10% FBS-50 U/mL penicillin-50 μg/mL streptomycin culture medium at 37° C. in a humidified incubator containing 5% CO2/95% air for 24 h. The fluorescence from DCF was then measured using a microplate spectrophotometer system with […].

A431 cells = test: DCFH-DA fluorometric ROS assay in A431 cells; type: cell-based, human; conditions: DCFH-DA 40 μM, 24 h
Procedure: as §1

AD-MSCs = test: DCFH-DA fluorometric ROS assay in AD-MSCs; type: cell-based; conditions: 300,000 AD-MSCs

For Dichlorofluorescein diacetate [DCFH-DA], the “ROS production, DCFH-DA assay” value (AsPC-1 cells; 50,000 AsPC-1 cells) was 0.15±0.04 absorbance units, the “ROS production, DCFH-DA assay” value (AsPC-1 cells; 100,000 AsPC-1 cells) was 0.51±0.06 absorbance units and the “ROS production, DCFH-DA assay” value (AsPC-1 cells; 200,000 AsPC-1 cells) was 0.82±0.05 absorbance units. The “ROS production, DCFH-DA assay” value (A431 cells; 50,000 A431 cells) was 0.17±0.01 absorbance units, the “ROS production, DCFH-DA assay” value (A431 cells; 100,000 A431 cells) was 0.49±0.01 absorbance units and the “ROS production, DCFH-DA assay” value (A431 cells; 200,000 A431 cells) was 0.96±0.07 absorbance units. The “ROS production, DCFH-DA assay” value (A431 cells; 300,000 A431 cells) was 1.06±0.05 absorbance units and 1.10±0.04 absorbance units and the “ROS production, DCFH-DA assay” value (AD-MSCs) was 1.06±0.05 absorbance units.
